US20030065039A1, “Biologically active 1,3-bis-aromatic-prop-2-en-1-ones, 1,3-bis-aromatic-propan-1-ones, and 1,3-bis-aromatic-prop-2-yn-1-ones” (Statens Serum Institute, priority 1997, published 2003)
Read-outs that look alike come from different tables or passages of the source.

Key:
Assay type in all cases: cell-based
Leishmania promastigotes = Leishmania promastigotes Assay; settings: promastigotes, 3H-thymidine uptake, read-out: Leishmania IC50 ± SD
Summary of the method: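 L. major (WHO Iran vaccine strain) and L. donovani MHOM/KE/85/NLB 274 promastigotes (3×10^6/ml, day 3 and 6 cultures) exposed to compound 2 h at 26 °C, then 3H-thymidine 18 h; incorporation counted by scintillation. Microscopic counts and flagellar motility also assessed.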

TNF-α = TNF-α production by human peripheral blood mononuclear cells, culture supernatant (ELISA); settings: for inhibition at 12.5 µg/mL / inhibition at 1 µg/mL / inhibition at 5 µg/mL / inhibition at 10 µg/mL / inhibition at 20 µg/mL / inhibition at 1.25 µg/mL / inhibition at 6.25 µg/mL: Homo sapiens, PBMC
Procedure: Cells: Peripheral blood mononuclear cells obtained from healthy individuals. The cells were separated by a conventional method lymphoprep) and suspended in RMPI 1640 containing 5% human serum.
Stimulation of cytokine-release from human mononuclear cells: Human peripheral blood mononuclear cells from Danish donors were suspended in 1-10% (v/v) human serum in RPMI 1640 and adjusted to 2×10^6 cells per ml. 0.1 ml volumes were then dispensed into wells of 96-well microtiter plates. […] In some experiments cells were preincubated with drugs for 2 hrs before addition of stimulation antigens. The cultures were incubated overnight for TNF-α and IL-6 assays.
Supernatants were collected and assayed for TNF-α, IL-1α and IL-6 by ELISA procedures (Jakobsen et al., 1993, Fomsgaard et al., 1988, Hansen et al., 1991) with the following modifications. ELISA Maxisorp plates (Nunc, Roskilde, Denmark) were coated for 24 hrs at 4 C with 100 μl per well of 2.5 μg/ml rabbit polyclonal IgG to human recombinant TNF, IL-1α or IL-6 in 100 mM sodiumhydrogencarbonate. Non-attached sites were blocked for 1 h by 200 μl per well of 2% human serum slbumin in PBS (1 h at 37° C.), and the wells were washed 4 times in 2.5% NaCl, 0.1% Tween 20 (Merck, Darmstadt, Germany). This washing procedure was done after each of the following incubating steps:
1) 100 μl culture supernatants made to 50% (v/v) in incubation buffer (4% (v/v) normal rabbit serum, DAKO code X902), 1% polyethylene glycol (MW 6,000), 2.5% NaCl, 0.1% Tween 20 in phosphate buffered saline (PBS) were incubated 2 hrs at 37° C., dilutions of native as well as recombinant cytokine standards in the same incubation buffer were asssayed in parallel with the tested supernatants,
2) 100 μl per well of biotinilated rabbit antibodies to recombinant TNF-α, IL-1α or IL-6 (1.5 μg/ml in 0.5% human serum albumin, 0.1% Tween 20 in PBS) were added at 37° for 2 hrs,
3) […] per well of a 1:1000 dilution of streptavidin-peroxidase (Amersham, UK), at room temperature for 30 min.
Enzyme activities were quantitated after addition of 100 μl per well of 0.67 mg/ml 1,2-phenyldiamine hydrochloride (DAKO) dissolved in 100 mM citric acid-phosphate buffer, pH 5.0 containing 0.015% (v/v) H2O2. The reactions were stopped by adding 50 μl per well of 2.5 M H2SO4, and the optical densities are measured in an ELISA scanner at 490 nm against a test reference at 620 nm.
Assay: The compounds were prepared as stock solution at a concentration of 1 mg/ml in medium containing 10% DMSO. The dilutions were made in medium. The cells were stimulated with either SPAG (a malaria antigen TNF-inducer) or bacterial LPS. The supernatant of cell cultures were assayed for TNF-α using a commercial ELISA kit.

human lymphocytes = assay: Lymphocyte Proliferation Assay; settings: PHA provoked proliferation of human lymphocytes, read-out: Lymphocytes IC50 ± SD
Summary of the method: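 Ficoll-isolated human blood mononuclear cells (0.63×10^5/ml) in RPMI 1640 with 5% FCS were cultured in triplicate with test compound and PHA or PPD for 3 or 7 days. Proliferation measured by ^3H-thymidine incorporation over the final 24 h; triplicate median recorded.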

[1] = Experiment 1, LPS, 12.5 μg/ml, Control 1.17
[2] = Experiment 1, LPS, 25 μg/ml, Control 1.17
[3] = Experiment 1, LPS, 50 μg/ml, Control 1.17
[4] = Experiment 1, LPS, 100 μg/ml, Control 1.17
[5] = Experiment 1, SPAG, 12.5 μg/ml, Control 3.73
[6] = Experiment 1, SPAG, 25 μg/ml, Control 3.73
[7] = Experiment 1, SPAG, 50 μg/ml, Control 3.73
[8] = Experiment 1, SPAG, 100 μg/ml, Control 3.73
[9] = Experiment 2, LPS, 1.562 μg/ml, Control 2.06
[10] = Experiment 2, LPS, 3.125 μg/ml, Control 2.06
[11] = Experiment 2, LPS, 6.25 μg/ml, Control 2.06
[12] = Experiment 2, LPS, 12.5 μg/ml, Control 2.06
[13] = Experiment 2, SPAG, 1.562 μg/ml, Control 2.28
[14] = Experiment 2, SPAG, 3.125 μg/ml, Control 2.28
[15] = Experiment 2, SPAG, 6.25 μg/ml, Control 2.28
[16] = Experiment 2, SPAG, 12.5 μg/ml, Control 2.28

Row | IC50 (Leishmania promastigotes; Leishmania) [µM] | SMILES | TNF-α production (OD values) (TNF-α; [1]) [OD] | TNF-α production (OD values) (TNF-α; [2]) [OD] | TNF-α production (OD values) (TNF-α; [3]) [OD] | TNF-α production (OD values) (TNF-α; [4]) [OD] | TNF-α production (OD values) (TNF-α; [5]) [OD] | TNF-α production (OD values) (TNF-α; [6]) [OD] | TNF-α production (OD values) (TNF-α; [7]) [OD] | TNF-α production (OD values) (TNF-α; [8]) [OD] | TNF-α production (OD values) (TNF-α; [9]) [OD] | TNF-α production (OD values) (TNF-α; [10]) [OD] | TNF-α production (OD values) (TNF-α; [11]) [OD] | TNF-α production (OD values) (TNF-α; [12]) [OD] | TNF-α production (OD values) (TNF-α; [13]) [OD] | TNF-α production (OD values) (TNF-α; [14]) [OD] | TNF-α production (OD values) (TNF-α; [15]) [OD] | TNF-α production (OD values) (TNF-α; [16]) [OD] | IC50 (human lymphocytes; Lymphocyte) [µM] | also measured
1 | 31 ± 2 | COc1cc(/C=C/C(=O)c2ccc(C3CCCCC3)cc2)cc(OC)c1 [PH104, 3,5-dimethoxy-4′-cyclohexylchalcone] | 1.15 | 0.59 | 0.41 | 0.31 | 0.93 | 0.13 | 0.03 | 0.01 | 1.54 | 1.41 | 1.08 | 0.91 | 2.47 | 2.44 | 1.50 | 0.43 | 39 ± 2 | inhibition at 12.5 µg/mL (TNF-α; concentration of 12.5 μg/ml, read-out: inhibition of the production of TNF-α): ~75%; inhibition of the production of TNF-α (TNF-α; at higher concentrations than 12.5 μg/ml): greater than 75%
2 | 3.5 ± 0.8 | COc1cc(/C=C/C(=O)c2ccccc2F)cc(OC)c1 [PH135, 2′-fluoro-3,5-dimethoxychalcone] | 0.01 | 0.01 | 0.01 | 0.02 | 0.02 | 0.01 | 0.01 | 0.01 | 0.89 | 0.49 | 0.09 | 0.04 | 0.93 | 0.04 | 0.03 | 0.01 | 6 ± 0.4 | 
3 | 16 ± 1 | COc1cc(/C=C/C(=O)c2ccc([N+](=O)[O-])cc2)cc(OC)c1 [PH105, 4′-nitro-3,5-dimethoxychalcone] | 1.07 | 1.13 | 1.69 | 0.99 | 1.94 | 2.00 | 4.00 | 2.3 |  |  |  |  |  |  |  |  | 20 ± 1 | inhibitory effect on TNF-α production (TNF-α): no or very little inhibitory effect
4 |  | C=CC(C)(C)c1cc(/C=C/C(=O)c2ccc(O)cc2)c(OC)cc1O [Licochalcone A] |  |  |  |  |  |  |  |  |  |  |  |  |  |  |  |  |  | IC50 (Leishmania promastigotes): 13 ± 1 µM; percentage inhibition of TNF-α production (TNF-α; Table 1, LPS 1:1000, drug 1 μg/ml): 0%; percentage inhibition of TNF-α production (TNF-α; Table 1, LPS 1:1000, drug 5 μg/ml): 0%; percentage inhibition of TNF-α production (TNF-α; Table 1, LPS 1:1000, drug 10 μg/ml): 40%; percentage inhibition of TNF-α production (TNF-α; Table 1, LPS 1:1000, drug 20 μg/ml, preincubated 2 hrs): 81%; percentage inhibition of TNF-α production (TNF-α; Table 1, SPAG 1:12.5, drug 1 μg/ml): 0%; percentage inhibition of TNF-α production (TNF-α; Table 1, SPAG 1:12.5, drug 5 μg/ml): 13%; percentage inhibition of TNF-α production (TNF-α; Table 1, SPAG 1:12.5, drug 10 μg/ml): 44%; percentage inhibition of TNF-α production (TNF-α; Table 1, SPAG 1:12.5, drug 20 μg/ml, preincubated 2 hrs): 97%; percentage inhibition of TNF-α production (TNF-α; Table 2, LPS 1:1000, drug 1.25 μg/ml): 4%; percentage inhibition of TNF-α production (TNF-α; Table 2, LPS 1:1000, drug 6.25 μg/ml): 3%; percentage inhibition of TNF-α production (TNF-α; Table 2, LPS 1:1000, drug 12.5 μg/ml): 38%; percentage inhibition of TNF-α production (TNF-α; Table 2, LPS 1:1000, drug 20 μg/ml, preincubated 2 hours): 54%; percentage inhibition of TNF-α production (TNF-α; Table 2, SPAG 1:12.5, drug 1.25 μg/ml): 54%; percentage inhibition of TNF-α production (TNF-α; Table 2, SPAG 1:12.5, drug 6.25 μg/ml): 82%; percentage inhibition of TNF-α production (TNF-α; Table 2, SPAG 1:12.5, drug 12.5 μg/ml): 94%; percentage inhibition of TNF-α production (TNF-α; Table 2, SPAG 1:12.5, drug 20 μg/ml, preincubated 2 hours): 100%; IC50 (human lymphocytes): 48 ± 5 µM

Row | SMILES | IC50 (Leishmania promastigotes; Leishmania) [µM] | TNF-α production (OD values) (TNF-α; [1]) [OD] | TNF-α production (OD values) (TNF-α; [2]) [OD] | TNF-α production (OD values) (TNF-α; [3]) [OD] | TNF-α production (OD values) (TNF-α; [4]) [OD] | TNF-α production (OD values) (TNF-α; [5]) [OD] | TNF-α production (OD values) (TNF-α; [6]) [OD] | TNF-α production (OD values) (TNF-α; [7]) [OD] | TNF-α production (OD values) (TNF-α; [8]) [OD] | TNF-α production (OD values) (TNF-α; [9]) [OD] | TNF-α production (OD values) (TNF-α; [10]) [OD] | TNF-α production (OD values) (TNF-α; [11]) [OD] | TNF-α production (OD values) (TNF-α; [12]) [OD] | TNF-α production (OD values) (TNF-α; [13]) [OD] | TNF-α production (OD values) (TNF-α; [14]) [OD] | TNF-α production (OD values) (TNF-α; [15]) [OD] | TNF-α production (OD values) (TNF-α; [16]) [OD] | IC50 (human lymphocytes; Lymphocyte) [µM] | also measured
5 | C=CCOc1ccc(C(=O)/C=C/c2cc(OC)cc(OC)c2)cc1 [SBC-35ma, 3,5-dimethoxy-4′-allyloxychalcone] | 27 ± 2 |  |  |  |  |  |  |  |  |  |  |  |  |  |  |  |  | 25 ± 2 | inhibition at 1 µg/mL (TNF-α; Table 1, LPS 1:1000, drug 1 μg/ml, read-out: percentage inhibition of TNF-α production): 0%; inhibition at 5 µg/mL (TNF-α; Table 1, LPS 1:1000, drug 5 μg/ml, read-out: percentage inhibition of TNF-α production): 1%; inhibition at 10 µg/mL (TNF-α; Table 1, LPS 1:1000, drug 10 μg/ml, read-out: percentage inhibition of TNF-α production): 56%; inhibition at 20 µg/mL (TNF-α; Table 1, LPS 1:1000, drug 20 μg/ml, preincubated 2 hrs, read-out: percentage inhibition of TNF-α production): 73%; inhibition at 1 µg/mL (TNF-α; Table 1, SPAG 1:12.5, drug 1 μg/ml, read-out: percentage inhibition of TNF-α production): 0%; inhibition at 5 µg/mL (TNF-α; Table 1, SPAG 1:12.5, drug 5 μg/ml, read-out: percentage inhibition of TNF-α production): 0%; inhibition at 10 µg/mL (TNF-α; Table 1, SPAG 1:12.5, drug 10 μg/ml, read-out: percentage inhibition of TNF-α production): 55%; inhibition at 20 µg/mL (TNF-α; Table 1, SPAG 1:12.5, drug 20 μg/ml, preincubated 2 hrs, read-out: percentage inhibition of TNF-α production): 100%; inhibition at 1.25 µg/mL (TNF-α; Table 2, LPS 1:1000, drug 1.25 μg/ml, read-out: percentage inhibition of TNF-α production): 2%; inhibition at 6.25 µg/mL (TNF-α; Table 2, LPS 1:1000, drug 6.25 μg/ml, read-out: percentage inhibition of TNF-α production): 23%; inhibition at 12.5 µg/mL (TNF-α; Table 2, LPS 1:1000, drug 12.5 μg/ml, read-out: percentage inhibition of TNF-α production): 28%; inhibition at 20 µg/mL (TNF-α; Table 2, LPS 1:1000, drug 20 μg/ml, preincubated 2 hours, read-out: percentage inhibition of TNF-α production): 33%; inhibition at 1.25 µg/mL (TNF-α; Table 2, SPAG 1:12.5, drug 1.25 μg/ml, read-out: percentage inhibition of TNF-α production): 87%; inhibition at 6.25 µg/mL (TNF-α; Table 2, SPAG 1:12.5, drug 6.25 μg/ml, read-out: percentage inhibition of TNF-α production): 99%; inhibition at 12.5 µg/mL (TNF-α; Table 2, SPAG 1:12.5, drug 12.5 μg/ml, read-out: percentage inhibition of TNF-α production): 100%; inhibition at 20 µg/mL (TNF-α; Table 2, SPAG 1:12.5, drug 20 μg/ml, preincubated 2 hours, read-out: percentage inhibition of TNF-α production): 100%
